Experimental data: patent EP4729529A1, “PREPARATION OF PEPTIDE INHIBITOR OF INTERLEUKIN-23 RECEPTOR AND USE THEREOF” (Xizang Haisco Pharmaceutical Co., Ltd., priority 2023, dated 2024)
Positions of bridges follow the written chain, without caps; N, C: chain ends. Non-standard residues stand in square brackets, D forms with d. Residues, ends and D or L forms follow the SMILES beside them. Phe(4-OC2H4NH2,2,3-(CH2)3) = NCCOc1ccc(C[C@H](N)C(=O)O)c2c1CCC2; Trp(7-Me) = Cc1cccc2c(C[C@H](N)C(=O)O)c[nH]c12; 2Nal = N[C@@H](Cc1ccc2ccccc2c1)C(=O)O; 3Pal = N[C@@H](Cc1cccnc1)C(=O)O; Pen = CC(C)(S)[C@H](N)C(=O)O; Thp = NC1(C(=O)O)CCOCC1; Sar = CNCC(=O)O

Key:
IL-23R = biological target: T1, IL-23R (Homo sapiens, UniProt Q5VWK5); assay: IL-23R reporter gene assay (HEK-blue IL23 reporter gene cell line, rhIL23 stimulation); format: cell-based; settings: Inhibition of IL-23R, rhIL23 1 ng/mL, 24 hours
T1 construct: host or cells: HEK-blue IL23 reporter gene cell line
T1 sequence (Q5VWK5 24-629): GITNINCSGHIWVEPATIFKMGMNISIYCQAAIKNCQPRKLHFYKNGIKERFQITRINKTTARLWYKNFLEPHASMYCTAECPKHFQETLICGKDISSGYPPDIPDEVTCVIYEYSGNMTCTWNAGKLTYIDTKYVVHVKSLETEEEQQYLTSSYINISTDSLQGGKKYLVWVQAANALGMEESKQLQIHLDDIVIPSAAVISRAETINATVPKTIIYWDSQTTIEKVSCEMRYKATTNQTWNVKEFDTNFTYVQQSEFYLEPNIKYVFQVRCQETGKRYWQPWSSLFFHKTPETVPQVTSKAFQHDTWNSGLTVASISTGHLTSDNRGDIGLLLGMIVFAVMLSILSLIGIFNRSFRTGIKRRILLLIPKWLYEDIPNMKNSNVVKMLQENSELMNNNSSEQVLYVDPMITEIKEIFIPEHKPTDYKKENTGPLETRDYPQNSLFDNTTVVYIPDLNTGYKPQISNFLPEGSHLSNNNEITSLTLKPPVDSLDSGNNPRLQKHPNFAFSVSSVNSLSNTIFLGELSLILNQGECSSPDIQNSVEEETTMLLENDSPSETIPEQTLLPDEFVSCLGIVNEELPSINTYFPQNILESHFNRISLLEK
Procedure: 2. IL-23R reporter gene assay
The purpose of this assay was to assess the ability of compounds to inhibit the binding of IL23p19 to IL23R in a reporter gene system. The HEK-blue IL23 reporter gene cell line (Invivogen, hkb-il23) was cultured in DMEM + 10% FBS + 100 ug/mL Normocin medium. When the cell density reached 80%-90%, 5000 cells/well were plated into a 384-well plate, and the plate was incubated overnight at 37°C with 5% CO2. Then, the compound stock solution was diluted in DMSO, and 40 nL of the dilution was transferred into the 384-well culture plate by Echo. The plate was incubated at 37°C with 5% CO2 for 0.5 hours. 40 nL/well of rhIL23 (R&D, 1290-IL) was added to the 384-well cell culture plate at a final concentration of 1 ng/mL, and the plate was incubated at 37°C with 5% CO2 for 24 hours. 18 µL of Quanti-Blue™ solution was added to a new 384-well plate. 2 µL/well of cell culture supernatant was transferred into the 384-well plate prepared in Step 6, and the plate was incubated at 37°C with 5% CO2 for 1 hour. Absorbance values at […] were read on BMG. The binding ability of the compounds was assessed using the following formula, and IC50 values were obtained by fitting with Graphpad.
(§1) Calculation formula of inhibition rate: [formula] • where Data negative: mean of DMSO control group; and • Data positive: mean of non-IL23-stimulated group
The calculation formula of IC50 was as follows: Y = Bottom + (Top−Bottom)/(1+10^(∧)((LogIC50−X)*HillSlope)) [formula] • where X: concentration of compound; and • Y: inhibition rate of compound Table 2. Inhibition of IL-23R by test compounds

[1] = Test of stability in plasma, monkey; format: in vitro ADME; settings: read-out: Residual rate% at 37°C for 6 h
Procedure: (§2) 5. Test of stability in plasma
(§3) In this experiment, plasmas of five species, including human, monkey, dog, rat, and mouse, were used to evaluate the stability in plasma of Compound 7.
(§4) A plasma sample was prepared at a concentration level of 1000 ng/mL, and dispensed into EP tubes at time points 0 h and 6 h. Acetonitrile solution containing an internal standard was added directly to the 0 h sample; and the 6 h sample was placed at 37°C for the corresponding time, and then added with an acetonitrile solution containing internal standard. The concentration of the test compound in the sample was measured by the LC-MS/MS method, and the residual rate was calculated from the ratio of the peak areas of the test compound to the internal standard in the time point sample and the 0 h sample.
(§5) Experimental results: At the concentration level of 1000 ng/mL under the test conditions, the residual rates of the test Compounds were shown in Table 6 below. Table 6. Residual rate% at 37°C for 6 h

[2] = biological target: (Homo sapiens, UniProt Q5VWK5); assay: IL-23-stimulated pSTAT3 detection assay in PBMCs (ELISA); format: cell-based; settings: rhIL23 stimulation 30 minutes, read-out: pSTAT3 inhibition/IC50
Sequence of (Homo sapiens, UniProt Q5VWK5) (Q9NPF7 20-189 partner, other chains not shown): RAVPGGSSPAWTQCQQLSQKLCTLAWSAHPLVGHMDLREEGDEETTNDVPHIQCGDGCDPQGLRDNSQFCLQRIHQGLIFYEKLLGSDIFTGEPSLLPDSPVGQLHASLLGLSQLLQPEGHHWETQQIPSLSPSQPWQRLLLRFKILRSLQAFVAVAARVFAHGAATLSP
Sequence of (Homo sapiens, UniProt Q5VWK5) (P29460 23-328 partner, other chains not shown): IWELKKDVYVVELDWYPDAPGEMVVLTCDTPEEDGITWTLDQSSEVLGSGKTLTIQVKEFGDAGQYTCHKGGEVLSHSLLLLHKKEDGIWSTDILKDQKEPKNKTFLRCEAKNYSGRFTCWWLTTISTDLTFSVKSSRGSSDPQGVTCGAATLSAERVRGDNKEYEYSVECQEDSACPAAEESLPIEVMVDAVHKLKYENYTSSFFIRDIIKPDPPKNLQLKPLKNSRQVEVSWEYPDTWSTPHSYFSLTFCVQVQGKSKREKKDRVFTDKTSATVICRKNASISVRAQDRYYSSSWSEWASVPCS
Procedure: 3. IL-23-stimulated pSTAT3 detection assay in PBMCs
Cryopreserved human PBMCs were thawed, and seeded onto a plate previously covered with an anti-CD3 antibody at 1 × 10^6 cells/well. Then, an anti-CD28 antibody was added to the plate, and the cells were incubated at 37°C with 5% CO2 for 5 days. On Day 5, the cells were seeded onto a 96-well plate at a density of 100K cells/well after 4 hours of stimulation by FBS starvation. The diluted Compound was transferred into the 96-well cell culture plate, and the plate was incubated at 37°C with 5% CO2 for 1 hour. rhIL23 (R&D, 1290-IL) was added to the cell culture plate, and the plate was incubated at 37°C with 5% CO2 for 30 minutes. The cells in the wells were lysed on ice with a lysis buffer containing 1× PHOSstop solution for 30 minutes, and the plate was centrifuged at 1000 rpm for 1 minute. Then, the supernatant was transferred into a 96-well ELISA plate, and pSTAT3 ELISA assay was performed according to the instructions of the kit (CST, 7300CA). Absorbance values at […] were read on PHERAstar FSX (BMG LRBTECH). The inhibition rate of the compounds was assessed using the following formula, and IC50 values were obtained by fitting with Graphpad.
as §1
The calculation formula of IC50 was as follows: Y = Bottom + (Top−Bottom)/(1+10^(∧)((LogIC50−X)*HillSlope)) [formula] • where X: concentration of compound; and • Y: inhibition rate of compound. Table 3. pSTAT3 inhibition

[3] = Test of stability in plasma, dog; format: in vitro ADME; settings: read-out: Residual rate% at 37°C for 6 h
Procedure: as §2, §3, §4, §5

Compound: CC(=O)NCCCC[C@@H]1NC(=O)[C@H](Cc2c[nH]c3c(C)cccc23)NC(=O)[C@H]([C@@H](C)O)NC(=O)[C@H](Cc2c[nH]cn2)NC(=O)[C@@H](NC(C)=O)C(C)(C)SSC(C)(C)[C@@H](C(=O)N[C@@H](Cc2ccc(OCCN)c3c2CCC3)C(=O)N[C@@H](Cc2ccc3ccccc3c2)C(=O)NC2(C(=O)N[C@@H](CCC(=O)O)C(=O)N[C@@H](CC(N)=O)C(=O)N[C@@H](Cc3cccnc3)C(=O)N(C)CC(N)=O)CCOCC2)NC1=O [Compound 7] (Ac-[Pen]HT[Trp(7-Me)]K(Ac)[Pen][Phe(4-OC2H4NH2,2,3-(CH2)3)][2Nal][Thp]EN[3Pal][Sar]-NH2; disulfide 1-6)
- IC50 (IL-23R): 6.38 nM
- remaining at 6 h, 1000 ng/mL [1]: > 99%
- IC50 [2]: 1.4 pM
- remaining at 6 h, 1000 ng/mL [3]: > 99%
